Square brackets hold non-standard residues; d marks the D form. Peptide text beside a SMILES is read from it. * marks the point of attachment. ξ: configuration not given here. Dolaproine = CO[C@@H]([C@@H]1CCCN1)[C@@H](C)C(=O)O; Dil = CC[C@H](C)[C@H](NC)[C@@H](CC(=O)O)OC; d(β3hF) = N[C@@H](CC(=O)O)Cc1ccccc1; NH(4-aminobenzyl) = Nc1ccc(CN*)cc1; NMe2Val = CC(C)[C@@H](C(=O)*)N(C)C; β3hF = N[C@H](CC(=O)O)Cc1ccccc1; NMeV = CN[C@H](C(=O)O)C(C)C; ξF = NC(Cc1ccccc1)C(=O)O; X1 = CN(Cc1ccc(N)cc1)* Where only a bound is given, the exact number is not on record here.

The subject of one experiment is MDA-MB-468. Briefly: Inhibitory effect of small molecule toxins on cell proliferation in vitro (CCK8). It counts as cell-based. The following applies: MDA-MB-468, 7500 cells/well, 4 days. How it is done: (§1) First, tumor cells MDA-MB-468 and NCI-H322M were cultured; the small molecule toxins of the present invention, maytansin derivative (DM1, Nanjing Lianning), monomethyl auristatin F (MMAF, Nanjing Lianning) were co-cultured respectively with the tumor cells. Then, CCK8 reagent (Dongren Chemical Technology Co., Ltd.) was added, followed by detection with the microplate reader (manufacturer: Molecular Devices, model: SpectraMax M2) (wavelength: 450 nm). The activity of dehydrogenase in mitochondria was detected, to evaluate the inhibitory effect of small molecule toxins on cell proliferation.
(§2) Test of cell activity in vitro: toxins were diluted (10 concentration gradients) with the corresponding test medium (containing 2% FBS). Tumor cells were trypsinized by a conventional method using trypsin, and cells were collected by tube and resuspended in the corresponding test medium (containing 2% FBS). The diluted toxins were added to a 96-well plate, to which were added the cells. Thereafter, 20 μL of CCK8 reagent was added to each well, and reaction was carried out for 4 hours, followed by detection with the microplate reader (wavelength: 450 nm).

The test system of a further experiment is NCI-H322M. The description is as above. The experiment is classed as cell-based. The following applies: 5000 cells/well, 3 days, starting at 20000 nM, 5-fold dilution. The protocol: as §1, §2
[1] abbreviates: Homo sapiens, MDA-MB-468, 96 h, Table 3, starting at 10 nM, 2-fold dilution.
[2] abbreviates: Table 2, 3-fold dilution starting at 10000 nM (T001: 500 nM).

In the experiment on MDA-MB-468 (setting [1]), `CC[C@H](C)[C@@H]([C@@H](CC(=O)N1CCC[C@H]1[C@H](OC)[C@@H](C)C(=O)N[C@H](Cc1ccccc1)C(=O)N(C)Cc1ccc(N)cc1)OC)N(C)C(=O)[C@@H](NC(=O)[C@H](C(C)C)N(C)C)C(C)C` [Example T002, (S)—N-((3R,4 S,5 S)-1-((S)-2-((1R,2R)-3-(((R)-1-((4-aminobenzyl)(methyl)amino)-1-oxo-3-phenylprop-2-yl)amino)-1-methoxy-2-methyl-3-propionyl)pyrrolidin-1-yl)-3-methoxy-5-methyl-1-heptanoyl-4-yl)-2-((S)-2-(dimethylamino)-3-methylbutyramido)-N,3-dimethylbutyramide] (NMe2Val-V[Dil][Dolaproine][dF]-X1) had an EC50 of over 10 nM.
Molecule `CC[C@H](C)[C@@H]([C@@H](CC(=O)N1CCC[C@H]1[C@H](OC)[C@@H](C)C(=O)N[C@H](C(=O)NCc1ccc(N)cc1)C(C)C)OC)N(C)C(=O)[C@@H](NC(=O)[C@H](C(C)C)N(C)C)C(C)C` [Example T019] (NMe2Val-V[Dil][Dolaproine]V-{NH(4-aminobenzyl)}) had an EC50 in the experiment on MDA-MB-468 (setting [1]) of 1.16 nM.
`COc1cc2cc(c1Cl)N(C)C(=O)C[C@H](OC(=O)[C@H](C)N(C)C(=O)CCS)[C@]1(C)O[C@H]1[C@H](C)[C@@H]1C[C@@](O)(NC(=O)O1)[C@H](OC)/C=C/C=C(\C)C2` [maytansin derivative (DM1), reference compound]: the EC50 is 38.8 nM in the experiment on NCI-H322M and 7.61 nM with MDA-MB-468 (setting [2]).
`CC[C@H](C)[C@@H]([C@@H](CC(=O)N1CCC[C@H]1[C@H](OC)[C@@H](C)C(=O)N[C@@H](Cc1ccccc1)C(=O)N(C)Cc1ccc(N)cc1)OC)N(C)C(=O)[C@@H](NC(=O)[C@H](C(C)C)N(C)C)C(C)C` [Example T003, (S)—N-((3R,4S,5 S)-1-((S)-2-((1R,2R)-3-(((S)-1-((4-aminobenzyl)(methyl)amino)-1-oxo-3-phenylprop-2-yl)amino)-1-methoxy-2-methyl-3-propionyl)pyrrolidin-1-yl)-3-methoxy-5-methyl-1-heptanoyl-4-yl)-2-((S)-2-(dimethylamino)-3-methylbutyramido)-N,3-dimethylbutyramide] (NMe2Val-V[Dil][Dolaproine]F-X1) yielded an EC50 in the experiment on MDA-MB-468 (setting [1]) of 3.2 nM.
The molecule `CC[C@H](C)[C@@H]([C@@H](CC(=O)N1CCC[C@H]1[C@H](OC)[C@@H](C)C(=O)N[C@@H](Cc1ccccc1)C(=O)NCc1ccc(N)cc1)OC)N(C)C(=O)[C@@H](NC(=O)[C@H](C(C)C)N(C)C)C(C)C` [Example T011] (NMe2Val-V[Dil][Dolaproine]F-{NH(4-aminobenzyl)}) registered an EC50 in the experiment on MDA-MB-468 (setting [1]) of 0.211 nM. Compared with the last molecule, the EC50 is about 15-fold lower.
The same measure, in the same setting: with `CC[C@H](C)[C@@H]([C@@H](CC(=O)N1CCC[C@H]1[C@H](OC)[C@@H](C)C(=O)N[C@H](CC(=O)NCc1ccc(N)cc1)Cc1ccccc1)OC)N(C)C(=O)[C@@H](NC(=O)[C@H](C(C)C)N(C)C)C(C)C` [Example T013, (S)—N-((3R,4S,5 S)-1-((S)-2-((1R,2R)-3-(((S)-4-((4-aminobenzyl)amino)-4-oxo-1-phenylbut-2-yl)amino)-1-methoxy-2-methyl-3-oxopropyl)pyrrolidin-1-yl)-3-methoxy-5-methyl-1-oxoheptyl-4-yl)-2-((S)-2-(dimethylamino)-3-methylbutyramido)-N,3-dimethylbutyramide] (NMe2Val-V[Dil][Dolaproine][β3hF]-{NH(4-aminobenzyl)}) the figure was 0.414 nM; with `CC[C@H](C)[C@@H]([C@@H](CC(=O)N1CCC[C@H]1[C@H](OC)[C@@H](C)C(=O)N[C@@H](C)C(=O)NCc1ccc(N)cc1)OC)N(C)C(=O)[C@@H](NC(=O)[C@H](C(C)C)N(C)C)C(C)C` [Example T016] (NMe2Val-V[Dil][Dolaproine]A-{NH(4-aminobenzyl)}), 5.71 nM; with `CC[C@H](C)[C@@H]([C@@H](CC(=O)N1CCC[C@H]1[C@H](OC)[C@@H](C)C(=O)N[C@H](Cc1ccccc1)C(=O)NCc1ccc(N)cc1)OC)N(C)C(=O)[C@@H](NC(=O)[C@H](C(C)C)N(C)C)C(C)C` [Example T012] (NMe2Val-V[Dil][Dolaproine][dF]-{NH(4-aminobenzyl)}), 1.62 nM.
The same measure, in the same setting: with `CC[C@H](C)[C@@H]([C@@H](CC(=O)N1CCC[C@H]1[C@H](OC)[C@@H](C)C(=O)NCC(=O)NCc1ccc(N)cc1)OC)N(C)C(=O)[C@@H](NC(=O)[C@H](C(C)C)N(C)C)C(C)C` [Example T015, (S)—N-((3R,4S,5 S)-1-((S)-2-((1R,2R)-3-((2-((4-aminobenzyl)amino)-2-oxoethyl)amino)-1-methoxy-2-methyl-3-oxopropyl)pyrrolidin-1-yl)-3-methoxy-5-methyl-1-oxoheptyl-4-yl)-2-((S)-2-(dimethylamino)-3-methylbutyramido)-N,3-dimethylbutyramide] (NMe2Val-V[Dil][Dolaproine]G-{NH(4-aminobenzyl)}) the figure was 7.43 nM.
`CC[C@H](C)[C@@H]([C@@H](CC(=O)N1CCC[C@H]1[C@H](OC)[C@@H](C)C(=O)NC(Cc1ccccc1)C(=O)NCc1ccc(N)cc1)OC)N(C)C(=O)[C@@H](NC(=O)[C@H](C(C)C)N(C)C)C(C)C` (stereo partly drawn) [Example T001, (2S)—N-((3R,4S,5 S)-1-((2S)-2-((1R,2R)-3-((1-((4-aminobenzyl)amino)-1-oxo-3-phenylprop-2-yl)amino)-1-methoxy-2-methyl-3-propionyl)pyrrolidin-1-yl)-3-methoxy-5-methyl-1-heptanoyl-4-yl)-2-((S)-2-(dimethylamino)-3-methylbutyramido)-N,3-dimethylbutyramide] (NMe2Val-V[Dil][Dolaproine][ξF]-{NH(4-aminobenzyl)}): the EC50 worked out at 2 nM in the experiment on NCI-H322M (Homo sapiens, 72 h); 0.538 nM in the experiment on MDA-MB-468 (Homo sapiens, MDA-MB-468, 96 h, Table 2, 3-fold dilution starting at 10000 nM (T001: 500 nM)); 1.13 nM in the experiment on MDA-MB-468 (setting [1]).
Consider `CC[C@H](C)[C@@H]([C@@H](CC(=O)N1CCC[C@H]1[C@H](OC)[C@@H](C)C(=O)N[C@@H](Cc1ccccc1)C(=O)O)OC)N(C)C(=O)[C@@H](NC(=O)[C@@H](NC)C(C)C)C(C)C` [monomethyl auristatin F (MMAF), monomethyl auristatin F, reference compound] (H-[NMeV]V[Dil][Dolaproine]F-OH), for which the EC50 came out at 118 nM in the experiment with NCI-H322M and 98.4 nM in the experiment with MDA-MB-468 (setting [2]).
Take `CC[C@H](C)[C@@H]([C@@H](CC(=O)N1CCC[C@H]1[C@H](OC)[C@@H](C)C(=O)N[C@@H](CC(=O)NCc1ccc(N)cc1)Cc1ccccc1)OC)N(C)C(=O)[C@@H](NC(=O)[C@H](C(C)C)N(C)C)C(C)C` [Example T014, (S)—N-((3R,4S,5 S)-1-((S)-2-((1R,2R)-3-(((R)-4-((4-aminobenzyl)amino)-4-oxo-1-phenylbut-2-yl)amino)-1-methoxy-2-methyl-3-oxopropyl)pyrrolidin-1-yl)-3-methoxy-5-methyl-1-oxoheptyl-4-yl)-2-((S)-2-(dimethylamino)-3-methylbutyramido)-N,3-dimethylbutyramide] (NMe2Val-V[Dil][Dolaproine][d(β3hF)]-{NH(4-aminobenzyl)}): the EC50 with MDA-MB-468 (setting [1]) is 1.24 nM. This lies in the single-digit nanomolar range.
As to `CC[C@H](C)[C@@H]([C@@H](CC(=O)N1CCC[C@H]1[C@H](OC)[C@@H](C)C(=O)N[C@@H](CC(C)C)C(=O)NCc1ccc(N)cc1)OC)N(C)C(=O)[C@@H](NC(=O)[C@H](C(C)C)N(C)C)C(C)C` [Example T018] (NMe2Val-V[Dil][Dolaproine]L-{NH(4-aminobenzyl)}), the concentration for a half-maximal effect (EC50) in the experiment with MDA-MB-468 (setting [1]) stood at 2.35 nM.

The values above are taken from patent publication US11207420B2, “Cytotoxin and conjugate, uses of same and preparation method therefor” (priority 2017, dated 2021).
